# Experimental data: patent US20060154990A1, “Use of MEK inhibitors in treating abnormal cell growth” (AGOURON PHARMACEUTICALS, INC., priority 2004, published 2006)
# Experiments:
# [1] = tested on: MiaPaCa-2 pancreatic xenograft; experiment: Antitumor activity in MiaPaCa-2 tumor model; assay type: in vivo, mice; settings: oral 25 mg/kg once a day for 14 days
# H23 NSCL xenograft = experiment: Antitumor activity in H23 tumor model; assay type: in vivo, mice; settings: oral 25 mg/kg once a day for 14 days
# [2] = Metabolites of [14C] Compound 1 in cryopreserved hepatocytes; assay type: in vitro ADME, dog; settings: [C-14] Compound 1 10 μM, 180 mins
# Procedure: Incubations were performed in hepatocytes for 3 hours and liver microsomes for 1.5 hours and were stopped with the addition of methanol. HPLC, in conjuction with ionspray 3D iontrap mass spectrometry, and simultaneous radioactive monitoring were used to detect and identify the resulting metabolites.
# Metabolite identification of radiolabeled Compound 1 was performed after incubation with rat, dog, monkey and human cryopreserved hepatocytes and liver microsomes. […] Besides glucuronidation, metabolites derived from other clearance pathways are also observed. For instance, M 15 (acid cleavage product) accounts for 11% of the total radioactivity in the human chromatogram.
smiles,measurement,setting,value
"O=C(NOC[C@H](O)CO)c1ccc(F)c(F)c1Nc1ccc(I)cc1F [Compound 1, N-[(R)-2,3-dihydroxy-propoxy]-3,4-difluoro-2-(2-fluoro-4-iodo-phenylamino)-benzamide]",CR (complete responder),[1],1/9
same,PR (partial responder),[1],0/9
same,T − C,[1],16.8 days
same,Tumor Free,[1],0/9
same,CR (complete responder),H23 NSCL xenograft,0/8
same,PR (partial responder),H23 NSCL xenograft,1/8
same,T − C,H23 NSCL xenograft,13.9 days
same,Tumor Free,H23 NSCL xenograft,0/8
same,% ROI Dog,[2],50.45%
